Test results reported in patent US20220257767A1, “IONIC LIQUIDS FOR DRUG DELIVERY” (PRESIDENT AND FELLOWS OF HARVARD COLLEGE, priority 2019, published 2022).
≈ marks a conversion by molar mass, not a printed value. Entries after “also recorded” stand apart in the source; their conditions may differ.

Test system: not listed separately
Test: Solubility of the model drugs in PBS and in CAGE variants
Type: physicochemical
Conditions: PBS, aqueous buffer

Compound	solubility [µg/mL]
C[C@H]1O[C@H](O[C@H]2[C@H](O)[C@@H](O)[C@@H](O[C@H]3[C@H](O)[C@@H](O)C(O)O[C@@H]3CO)O[C@@H]2CO)[C@H](O)[C@@H](O)[C@@H]1N[C@H]1C=C(CO)[C@@H](O)[C@H](O)[C@H]1O (stereo partly drawn) [Acarbose, acarbose]	≥ 1000
N#CC[C@H](C1CCCC1)n1cc(-c2ncnc3[nH]ccc23)cn1 [ruxolitinib]	200 (≈ 653 µM)

Test system: porcine skin
Test: not given
Conditions: not given

Compound	Acarbose: Rank	Average Rank	Ruxolitinib: Rank	delivery/transport of acarbose into skin (in words)	delivery/transport of ruxolitinib into skin (in words)
Choline geranate [CAGE] [listing 1 of 2 here]	2	5	8	–	–
Choline geranate [CAGE] [listing 2 of 2 here]	1	1	3	highest delivery efficacy	highest delivery efficacy

Test system: not given
Test: not given
Conditions: model drugs; cited from earlier work

Compound	Log P
N#CC[C@H](C1CCCC1)n1cc(-c2ncnc3[nH]ccc23)cn1 [ruxolitinib]	2.9

Test system: not given
Test: not given
Conditions: exemplary anions, Table 5; cited from earlier work

Compound	pKa	LogP
CN(C)CCO [2-(dimethylamino)ethanol]	9.3	–
CCCCC(CC)COS(=O)(=O)[O-].[Na+] (stereo not drawn) [2-ethylhexyl sulfate]	–	3.10
CCCCCCC(O)C(=O)O (stereo not drawn) [2-hydroxyoctanoic acid]	4.42	1.8
CC(C)C(=O)O [2-methylpropanoic acid]	–	0.73
CCC(O)CCCCCCC(=O)O (stereo not drawn) [8-hydroxycapric acid]	–	2.2
COc1cc(/C=C/C(=O)O)ccc1O [(E)-3-(4-hydroxy-3-methoxy-phenyl)prop-2-enoic acid]	4.42	–
O=C(O)CCCC[C@@H]1CCSS1 [(R)-5-(1,2-dithiolan-3-yl)pentanoic acid]	5.10	–
CC(C)=CCCC(C)CC(=O)O (stereo not drawn) [Citronellic Acid, 3,7-dimethyl-6-octenoic acid]	5.19	2.8
CC(C)=CCC/C(C)=C/C(=O)O [Geranic Acid]	5.26	2.72
O=C(O)CCCC(=O)O [Glutaric Acid]	4.34	−0.29
O=C(O)C(O)c1ccccc1 (stereo not drawn) [Hydroxyl(phenyl)acetic acid]	3.41	1.2
O=C(O)CCCCCCCC(=O)O [Nonanedioic Acid]	4.55	–
CCCCCCCC(=O)O [Octanoic Acid]	4.895	3.01
CCCCC/C=C/C(=O)O [Octenoic Acid, trans-2-octenoic acid]	5.05	2.9
O=C(O)c1ccccc1O [Salicylic Acid]	–	2.2
Decenoic Acid	5.03	4.02
Hexenoic Acid	5.13	1.8

Test system: porcine skin
Test: Skin penetration studies using porcine skin in Franz diffusion cells, drug quantified by HPLC
Conditions: 24 h, listed as pure geranic acid
Excerpt: Skin Penetration Studies. The skin penetration studies were undertaken using porcine skin in Franz diffusion cells, as described in full previously (skin area=1.7 cm^2). […] Briefly, thawed, washed porcine skin was placed in a diffusion cell with the SC facing upwards. The acceptor component of the cell was filled with PBS and equipped with a magnetic stirrer bar. Only cells with a measured trans-epidermal current less than 12 μA were used in the study and the treatments were randomly assigned. 300 μL of drug solution in each IL (1 mg/mL) was placed on top of the skin, ensuring full coverage. The cell was placed on a stirrer plate at 37° C. for 24 hours, at which point the skin was removed and the surface was washed gently with PBS. Each skin layer was then separated. The stratum corneum was removed by tape stripping (up to ten layers), the epidermis was separated from the dermis with a scalpel, and a 4 mm punch was used thrice to remove a third of the dermis (by area).
HPLC Analysis. The analysis of the amount of drug present in each layer was determined by HPLC. […] For ruxolitinib, an Inertsil ODS C-18 column with 250×4.6 mm internal diameter and 5μm particle size was employed.

Compound	delivery/transport of acarbose into skin (in words)	delivery/transport of ruxolitinib into skin (in words)
CC(C)=CCC/C(C)=C/C(=O)O [Geranic Acid]	no significant transport; also recorded: did not yield a noticeable skin flux	no significant transport; also recorded: did not yield a noticeable skin flux
